Experimental data as given in ChEMBL document CHEMBL2331502, “Discovery of a novel series of quinolone α7 nicotinic acetylcholine receptor agonists” (Bioorg Med Chem Lett, 2013).
One block for each compound: values may come before it.

What was measured:
[1] = biological target: T1, Neuronal acetylcholine receptor subunit alpha-7 (Rattus norvegicus, UniProt Q05941); test: Agonist activity at rat alpha7 nAChR expressed in HEK293 cells assessed as calcium ion influx by FRET assay; type: cell-based
T1 sequence (Q05941 whole entry): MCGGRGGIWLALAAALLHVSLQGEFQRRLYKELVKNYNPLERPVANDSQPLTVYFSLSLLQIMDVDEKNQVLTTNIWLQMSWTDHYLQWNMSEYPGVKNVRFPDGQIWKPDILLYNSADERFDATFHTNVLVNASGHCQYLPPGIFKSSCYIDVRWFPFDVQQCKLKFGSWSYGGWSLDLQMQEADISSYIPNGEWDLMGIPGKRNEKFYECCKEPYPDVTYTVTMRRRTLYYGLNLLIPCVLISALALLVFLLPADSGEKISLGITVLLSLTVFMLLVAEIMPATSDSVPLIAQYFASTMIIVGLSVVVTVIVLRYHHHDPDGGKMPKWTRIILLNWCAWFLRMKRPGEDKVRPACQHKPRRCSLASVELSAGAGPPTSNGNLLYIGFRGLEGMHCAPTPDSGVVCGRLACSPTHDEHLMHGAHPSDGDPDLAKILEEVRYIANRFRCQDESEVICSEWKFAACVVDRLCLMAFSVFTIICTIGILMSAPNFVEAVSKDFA

[2] = Selectivity ratio of EC50 for alpha1beta1deltaepsilon nAChR (unknown origin) to EC50 for rat alpha7 nAChR
[3] = Selectivity ratio of EC50 for alpha3beta4 nAChR (unknown origin) to EC50 for rat alpha7 nAChR
[4] = Selectivity ratio of EC50 for alpha4beta2 nAChR (unknown origin) to EC50 for rat alpha7 nAChR
[5] = Permeability of the compound at pH 7.4 by PAMPA; type: ADME; settings: read-out: permeability
[6] = biological target: Neuronal acetylcholine receptor subunit alpha-7 (Rattus norvegicus) (UniProt Q05941); test: Agonist activity at rat alpha7 nAChR expressed in HEK293 cells assessed as peak intensity of acetylcholine-induced response by whole-cell patch clamp electrophysiology paradigm assay relative to control; type: cell-based
Chain of Neuronal acetylcholine receptor subunit alpha-7 (Rattus norvegicus) (Q05941 whole entry): as above

[7] = Selectivity ratio of IC50 for 5HT3 receptor (unknown origin) to EC50 for rat alpha7 nAChR
[8] = biological target: Neuronal acetylcholine receptor subunit alpha-7 (Rattus norvegicus) (UniProt Q05941); test: Agonist activity at rat alpha7 nAChR expressed in HEK293 cells assessed as area under the curve of acetylcholine-induced response by whole-cell patch clamp electrophysiology paradigm assay relative to control; type: cell-based
[9] = Efflux ratio of the compound in human Caco2 cells; type: ADME, cell-based; settings: Caco-2
[10] = biological target: T1, Neuronal acetylcholine receptor subunit alpha-7; test: Agonist activity at rat alpha7 nAChR expressed in HEK293 cells assessed as area under the curve of acetylcholine-induced response by whole-cell patch clamp electrophysiology paradigm assay; type: cell-based
[11] = Ratio of drug level in brain to plasma in sc dosed rat after 30 mins; type: ADME, organism-based; settings: read-out: BPR
[12] = Dissociation constant, pKa of the compound; type: physicochemical
[13] = biological target: T2, 5-hydroxytryptamine receptor 3A (Homo sapiens, UniProt P46098); test: Inhibition of 5HT3 receptor (unknown origin)
T2 sequence (P46098 whole entry): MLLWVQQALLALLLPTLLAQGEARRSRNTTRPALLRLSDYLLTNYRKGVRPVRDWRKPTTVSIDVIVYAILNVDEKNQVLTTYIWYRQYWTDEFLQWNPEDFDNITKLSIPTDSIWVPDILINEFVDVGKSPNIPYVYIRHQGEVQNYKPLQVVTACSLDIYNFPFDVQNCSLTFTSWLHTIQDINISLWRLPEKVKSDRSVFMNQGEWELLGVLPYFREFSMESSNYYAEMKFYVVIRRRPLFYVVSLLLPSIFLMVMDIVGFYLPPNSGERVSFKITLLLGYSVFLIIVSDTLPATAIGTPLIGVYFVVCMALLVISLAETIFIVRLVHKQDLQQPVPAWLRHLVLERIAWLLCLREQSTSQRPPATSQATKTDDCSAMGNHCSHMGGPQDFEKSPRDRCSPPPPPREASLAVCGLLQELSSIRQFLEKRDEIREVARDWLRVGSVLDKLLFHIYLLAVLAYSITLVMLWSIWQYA

[14] = biological target: Neuronal acetylcholine receptor; alpha4/beta2 (Homo sapiens, UniProt P17787+P43681); test: Agonist activity at alpha4beta2 nAChR (unknown origin); type: protein-complex assay
Chain of Neuronal acetylcholine receptor; alpha4/beta2 (P17787 whole entry): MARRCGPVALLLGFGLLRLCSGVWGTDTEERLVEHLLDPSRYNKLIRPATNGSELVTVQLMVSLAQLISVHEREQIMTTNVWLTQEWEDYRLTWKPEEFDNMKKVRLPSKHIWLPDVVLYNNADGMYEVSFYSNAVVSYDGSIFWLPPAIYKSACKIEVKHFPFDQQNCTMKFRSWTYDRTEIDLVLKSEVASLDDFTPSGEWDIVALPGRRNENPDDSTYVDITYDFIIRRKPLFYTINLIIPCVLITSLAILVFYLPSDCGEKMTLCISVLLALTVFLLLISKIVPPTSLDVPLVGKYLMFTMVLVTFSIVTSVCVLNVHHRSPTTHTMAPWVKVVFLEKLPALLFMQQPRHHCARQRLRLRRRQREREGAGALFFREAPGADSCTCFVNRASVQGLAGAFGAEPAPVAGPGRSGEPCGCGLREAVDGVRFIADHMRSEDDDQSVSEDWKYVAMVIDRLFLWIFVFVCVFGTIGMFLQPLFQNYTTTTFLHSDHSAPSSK
Chain of Neuronal acetylcholine receptor; alpha4/beta2 (P43681 whole entry): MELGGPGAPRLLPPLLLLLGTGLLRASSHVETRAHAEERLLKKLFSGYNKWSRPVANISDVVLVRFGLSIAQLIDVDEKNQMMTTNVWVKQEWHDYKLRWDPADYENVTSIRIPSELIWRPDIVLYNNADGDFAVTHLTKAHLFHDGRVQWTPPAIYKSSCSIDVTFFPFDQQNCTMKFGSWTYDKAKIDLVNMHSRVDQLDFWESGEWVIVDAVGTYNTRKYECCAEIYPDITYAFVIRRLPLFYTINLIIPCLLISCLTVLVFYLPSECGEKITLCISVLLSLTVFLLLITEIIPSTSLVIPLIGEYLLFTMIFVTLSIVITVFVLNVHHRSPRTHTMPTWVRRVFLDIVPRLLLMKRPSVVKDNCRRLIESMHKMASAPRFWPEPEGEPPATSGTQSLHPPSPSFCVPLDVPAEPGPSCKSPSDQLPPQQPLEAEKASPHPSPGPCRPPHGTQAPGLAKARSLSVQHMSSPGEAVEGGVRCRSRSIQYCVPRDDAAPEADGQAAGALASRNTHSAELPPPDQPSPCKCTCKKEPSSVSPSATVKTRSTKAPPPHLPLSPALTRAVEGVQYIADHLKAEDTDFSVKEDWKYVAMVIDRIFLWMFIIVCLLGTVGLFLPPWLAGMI

[15] = biological target: Neuronal acetylcholine receptor; alpha3/beta4 (Homo sapiens, UniProt P30926+P32297); test: Agonist activity at alpha3beta4 nAChR (unknown origin); type: protein-complex assay
Chain of Neuronal acetylcholine receptor; alpha3/beta4 (P30926 whole entry): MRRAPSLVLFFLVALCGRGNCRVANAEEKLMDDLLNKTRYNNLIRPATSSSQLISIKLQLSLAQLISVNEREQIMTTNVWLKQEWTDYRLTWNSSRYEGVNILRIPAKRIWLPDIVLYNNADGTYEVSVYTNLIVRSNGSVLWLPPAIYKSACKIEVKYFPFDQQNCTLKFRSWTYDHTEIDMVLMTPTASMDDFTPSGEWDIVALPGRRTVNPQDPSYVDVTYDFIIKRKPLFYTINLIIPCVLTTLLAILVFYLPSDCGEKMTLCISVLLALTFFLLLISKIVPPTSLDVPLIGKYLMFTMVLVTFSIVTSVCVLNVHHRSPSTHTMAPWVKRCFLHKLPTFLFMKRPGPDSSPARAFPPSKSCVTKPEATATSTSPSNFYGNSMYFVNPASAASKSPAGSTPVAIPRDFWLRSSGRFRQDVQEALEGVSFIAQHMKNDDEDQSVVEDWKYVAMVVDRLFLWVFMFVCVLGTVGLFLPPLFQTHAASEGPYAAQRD
Chain of Neuronal acetylcholine receptor; alpha3/beta4 (P32297 whole entry): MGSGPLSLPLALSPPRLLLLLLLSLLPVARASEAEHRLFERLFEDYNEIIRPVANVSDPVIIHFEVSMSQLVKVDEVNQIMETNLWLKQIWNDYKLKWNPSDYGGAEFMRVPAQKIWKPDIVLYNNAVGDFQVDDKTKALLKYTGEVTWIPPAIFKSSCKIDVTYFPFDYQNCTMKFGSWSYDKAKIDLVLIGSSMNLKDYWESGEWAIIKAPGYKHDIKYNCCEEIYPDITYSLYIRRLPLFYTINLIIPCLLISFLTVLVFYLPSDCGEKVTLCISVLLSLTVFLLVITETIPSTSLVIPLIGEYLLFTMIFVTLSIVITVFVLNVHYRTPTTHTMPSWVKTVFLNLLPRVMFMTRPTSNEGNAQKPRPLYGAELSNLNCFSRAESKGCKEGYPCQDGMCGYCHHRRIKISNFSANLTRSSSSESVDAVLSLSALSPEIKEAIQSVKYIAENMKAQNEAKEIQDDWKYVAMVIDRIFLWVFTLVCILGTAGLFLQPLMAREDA

[16] = biological target: Acetylcholine receptor; alpha1/beta1/delta/gamma (Homo sapiens, UniProt P02708+P07510+P11230+Q07001); test: Agonist activity at alpha1beta1deltaepsilon nAChR (unknown origin); type: protein-complex assay
Chain of Acetylcholine receptor; alpha1/beta1/delta/gamma (P02708 whole entry): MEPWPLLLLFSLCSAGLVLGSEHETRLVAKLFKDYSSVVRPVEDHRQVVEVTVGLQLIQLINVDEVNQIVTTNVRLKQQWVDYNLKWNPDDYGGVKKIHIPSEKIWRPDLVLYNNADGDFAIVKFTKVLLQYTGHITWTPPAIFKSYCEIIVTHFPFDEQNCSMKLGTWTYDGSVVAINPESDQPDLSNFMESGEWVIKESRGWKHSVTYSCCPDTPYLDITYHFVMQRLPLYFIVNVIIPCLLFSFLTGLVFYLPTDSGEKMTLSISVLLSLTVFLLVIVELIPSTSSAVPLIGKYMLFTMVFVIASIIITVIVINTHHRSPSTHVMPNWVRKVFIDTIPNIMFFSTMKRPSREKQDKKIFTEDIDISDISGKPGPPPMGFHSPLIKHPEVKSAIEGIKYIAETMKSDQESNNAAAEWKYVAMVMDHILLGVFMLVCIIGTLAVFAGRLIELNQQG
Chain of Acetylcholine receptor; alpha1/beta1/delta/gamma (P07510 whole entry): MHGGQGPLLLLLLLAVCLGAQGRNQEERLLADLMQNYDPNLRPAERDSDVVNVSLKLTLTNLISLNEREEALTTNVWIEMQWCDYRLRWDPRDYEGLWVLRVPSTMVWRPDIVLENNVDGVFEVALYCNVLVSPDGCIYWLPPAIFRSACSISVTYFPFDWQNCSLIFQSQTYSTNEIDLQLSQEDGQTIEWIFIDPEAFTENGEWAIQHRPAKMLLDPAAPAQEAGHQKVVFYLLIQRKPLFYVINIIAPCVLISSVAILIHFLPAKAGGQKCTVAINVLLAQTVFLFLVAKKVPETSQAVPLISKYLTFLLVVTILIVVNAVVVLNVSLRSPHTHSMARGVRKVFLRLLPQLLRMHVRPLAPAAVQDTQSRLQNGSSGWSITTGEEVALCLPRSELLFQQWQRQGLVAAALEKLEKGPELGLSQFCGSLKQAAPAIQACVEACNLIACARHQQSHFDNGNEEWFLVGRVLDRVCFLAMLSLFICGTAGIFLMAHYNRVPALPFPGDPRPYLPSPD
Chain of Acetylcholine receptor; alpha1/beta1/delta/gamma (P11230 whole entry): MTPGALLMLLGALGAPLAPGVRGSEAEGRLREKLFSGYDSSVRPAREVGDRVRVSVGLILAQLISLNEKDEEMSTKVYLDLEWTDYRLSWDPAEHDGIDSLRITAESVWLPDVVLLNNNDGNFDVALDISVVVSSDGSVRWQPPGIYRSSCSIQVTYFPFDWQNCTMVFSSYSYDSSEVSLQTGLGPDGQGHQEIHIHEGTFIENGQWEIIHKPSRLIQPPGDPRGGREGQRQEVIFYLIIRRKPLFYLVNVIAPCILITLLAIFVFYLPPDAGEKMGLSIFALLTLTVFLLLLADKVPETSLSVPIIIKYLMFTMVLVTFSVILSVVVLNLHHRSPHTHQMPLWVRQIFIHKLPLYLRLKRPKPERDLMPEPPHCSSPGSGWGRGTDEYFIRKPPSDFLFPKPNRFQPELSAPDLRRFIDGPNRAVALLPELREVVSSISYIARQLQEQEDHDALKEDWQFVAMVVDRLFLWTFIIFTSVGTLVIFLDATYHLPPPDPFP
Chain of Acetylcholine receptor; alpha1/beta1/delta/gamma (Q07001 whole entry): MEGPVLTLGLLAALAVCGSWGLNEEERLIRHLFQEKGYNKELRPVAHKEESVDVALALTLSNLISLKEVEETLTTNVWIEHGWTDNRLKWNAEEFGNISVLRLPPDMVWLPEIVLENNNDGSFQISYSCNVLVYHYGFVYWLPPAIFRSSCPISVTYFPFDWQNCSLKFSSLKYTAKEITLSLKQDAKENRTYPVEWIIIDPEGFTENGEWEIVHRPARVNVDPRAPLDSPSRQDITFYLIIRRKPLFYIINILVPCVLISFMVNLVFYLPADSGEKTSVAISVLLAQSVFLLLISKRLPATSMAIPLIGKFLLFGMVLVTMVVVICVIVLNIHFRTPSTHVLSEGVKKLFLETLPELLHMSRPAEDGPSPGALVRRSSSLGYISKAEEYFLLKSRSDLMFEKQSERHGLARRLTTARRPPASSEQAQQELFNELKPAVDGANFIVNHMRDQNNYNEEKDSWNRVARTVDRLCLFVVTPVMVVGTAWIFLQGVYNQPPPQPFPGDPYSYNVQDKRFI

[17] = Ratio of drug level in brain to plasma in ip dosed rat after 30 mins; type: ADME, organism-based; settings: read-out: BPR

SMILES: CN(C)CCn1c(=O)cc(-c2ccccc2)c2ccccc21
EC50 [1]: > 10000 nM

EC50 [1]: 900 nM
SMILES: CNCCCn1c(=O)c(C#N)c(-c2ccccc2)c2ccccc21

EC50 [1]: 100 nM
SMILES: CC(=O)NCc1cccc(-c2cc(=O)n(CC3CCCNC3)c3ccccc23)c1 (racemic)

SMILES: CC(=O)NCc1cccc(-c2cc(=O)n(CC3CN4CCC3CC4)c3ccccc23)c1 (racemic)
Ratio EC50 [2]: 100
Ratio EC50 [3]: 100
EC50 [1]: 32 nM
Ratio EC50 [4]: 100
Papp [5]: 0.1 ×10⁻⁶ cm/s
Emax [6]: 21%
Ratio IC50/EC50 [7]: 50
Emax [8]: 84%

efflux ratio [9]: 1
EC50 [10]: 1200 nM
EC50 [1]: 260 nM
Papp [5]: 55 ×10⁻⁶ cm/s
Emax [6]: 34%
Kp at 0.5 h [11]: 0.9
Emax [8]: 41%
pKa [12]: 8.1
SMILES: O=c1cc(-c2ccccc2)c2ccccc2n1CC1CNCCO1 (centres undefined)

EC50 [1]: 9300 nM
SMILES: N#Cc1c(-c2ccccc2)c2ccccc2n(CCCN2CCCC2)c1=O

EC50 [10]: 2500 nM
EC50 [1]: 210 nM
Emax [6]: 60%
Emax [8]: 30%
SMILES: O=c1cc(-c2ccccc2)c2ccccc2n1CC1CCCNC1 (centres undefined)

SMILES: O=c1cc(-c2ccccc2)c2ccccc2n1CC1CN2CCC1(F)CC2 (racemic)
efflux ratio [9]: 0.6
Papp [5]: 38 ×10⁻⁶ cm/s
pKa [12]: 7.6

IC50 [13]: 19000 nM
EC50 [10]: 8200 nM
EC50 [1]: 1300 nM
Emax [6]: 15%
EC50 [14]: > 100000 nM
EC50 [15]: > 100000 nM
Emax [8]: 44%
EC50 [16]: > 100000 nM
SMILES: CN(C)CCCn1c(=O)c(C#N)c(-c2ccccc2)c2ccccc21

EC50 [1]: 77 nM
SMILES: CS(=O)(=O)NCc1cccc(-c2cc(=O)n(CC3CCCNC3)c3ccccc23)c1 (racemic)

EC50 [1]: 2800 nM
SMILES: CN(C)CCCn1c(=O)cc(-c2ccccc2)c2ccccc21

SMILES: CN1CCCC(Cn2c(=O)c(C#N)c(-c3ccccc3)c3ccccc32)C1 (racemic)
EC50 [1]: > 10000 nM

SMILES: CN(C)CCCn1ccc(-c2ccccc2)c(C#N)c1=O
EC50 [1]: > 10000 nM

SMILES: O=c1cc(-c2ccccc2)c2ccccc2n1CC1CN2CCC1CC2 (centres undefined)
Kp at 0.5 h [17]: 0.02
efflux ratio [9]: 6.9
EC50 [10]: 760 nM
EC50 [1]: 150 nM
Papp [5]: 90 ×10⁻⁶ cm/s
Emax [6]: 60%
Emax [8]: 110%
pKa [12]: 10.1

SMILES: CC(CN(C)C)Cn1c(=O)cc(-c2ccccc2)c2ccccc21 (racemic)
EC50 [1]: > 10000 nM

SMILES: CC(CCn1c(=O)cc(-c2ccccc2)c2ccccc21)N(C)C (racemic)
EC50 [1]: > 10000 nM

EC50 [1]: 110 nM
SMILES: O=c1cc(-c2cccc3[nH]ccc23)c2ccccc2n1CC1CCCNC1 (racemic)

SMILES: CN(C)CCCCn1c(=O)cc(-c2ccccc2)c2ccccc21
EC50 [1]: > 10000 nM

EC50 [1]: 1500 nM
SMILES: Cc1ccccc1-c1cc(=O)n(CC2CCCNC2)c2ccccc12 (racemic)

SMILES: c1cnc2c(c1)C[C@@]1(CN3CCC1CC3)O2 [AZD0328]
efflux ratio [9]: 0.9
Papp [5]: 51 ×10⁻⁶ cm/s
Kp at 0.5 h [11]: 1.7
pKa [12]: 8.9

EC50 [1]: 460 nM
SMILES: N#Cc1c(-c2ccccc2)c2ccccc2n(CC2CCCNC2)c1=O (racemic)

SMILES: Cc1ccc(-c2cc(=O)n(CC3CCCNC3)c3ccccc23)cc1 (racemic)
EC50 [1]: > 10000 nM

EC50 [1]: 1300 nM
SMILES: COc1cccc(-c2cc(=O)n(CC3CCCNC3)c3ccccc23)c1 (racemic)

SMILES: CN(C)CCCn1c(=O)c(C#N)cc2ccccc21
EC50 [1]: > 10000 nM

EC50 [1]: 4300 nM
SMILES: CCN(C)CCCn1c(=O)c(C#N)c(-c2ccccc2)c2ccccc21

SMILES: CS(=O)(=O)NCc1cccc(-c2cc(=O)n(CC3CN4CCC3CC4)c3ccccc23)c1 (racemic)
Ratio EC50 [2]: 100
EC50 [10]: 260 nM
Ratio EC50 [3]: 100
EC50 [1]: 14 nM
Ratio EC50 [4]: 100
Emax [6]: 21%
Ratio IC50/EC50 [7]: 50
Emax [8]: 97%

SMILES: O=c1cc(-c2cccc3[nH]ccc23)c2ccccc2n1CC1CN2CCC1CC2 (racemic)
Ratio EC50 [2]: 100
efflux ratio [9]: > 18
EC50 [10]: 540 nM
Ratio EC50 [3]: 100
EC50 [1]: 23 nM
Ratio EC50 [4]: 100
Papp [5]: 40 ×10⁻⁶ cm/s
Emax [6]: 62%
Ratio IC50/EC50 [7]: 50
Emax [8]: 80%
